Data reported in patent US7445931B2, “Compositions and methods for enrichment of neural stem cells using ceramide analogs” (Bresagen, Inc., priority 2002, dated 2008).

Legend:
[1] = system: differentiating ES cells (NPs), PAR-4; experiment: S18-induced apoptosis (TUNEL) in NPs after PAR-4 antisense knockdown or PAR-4-RFP overexpression; type: cell-based, mouse
Method: For construction of PAR-4-REP cDNA, RT-PCR was performed with the oligonucleotide primer pair sense 5′atggcgaccggcggctatcg3′ (SEQ ID NO:14) and antisense 5′ctaccttgtcagctgcccaacaac3′(SEQ ID NO:15), using the first strand cDNA generated from embryoid bodies (EB8 stage) as template for the amplification reaction. The primers were endowed with the restriction enzyme cleaving sites Eco47III (sense) and SaII (antisense) for ligation of the PAR-4 specific amplification product into the multiple cloning site of HcRFP, a vector that encodes a far-red shifted variant of red fluorescent protein (Clontech). Differentiating ES cells at the NP1 stage were transfected with the PAR-4-RFP construct using the lipofectamine 2000 procedure according to the manufacturer's instructions (Invitrogen). The transfected cells were incubated in DMEM F12 (50/50), supplemented with 1×N2 and 20 ng/ml FGF-2, and the TUNEL assay or immunostainings were performed after 48 hours of incubation and NP formation. For depletion of ceramide, differentiating ES cell were incubated with 25 μM fumonisin B1 or 50 nM myriocin 48 hours prior to transfection with the PAR-4-RFP vector, and the inhibitor maintained in the medium throughout the post-transfection period. For induction of apoptosis, the novel ceramide analog S18 (40-100 μM), N-acetyl sphingosine (C2-ceramide, 10-30 μM), or natural ceramide isolated from EBs (0.5-1.5 μM) was added 48 hours after transfection with the PAR-4-RFP cDNA, and the degree of apoptosis quantified after 15-20 hours using TUNEL assays with paraformaldehyde-fixed cells as described above.
Endogenous expression of PAR-4 was suppressed by transfection of differentiating ES cells at the NP1 stage with 2 nmoles (per well in 24 wells plate) of the morpholino-based antisense oligonucleotide 5′cgatagccgccggtcgccatgttcc3′(SEQ ID NO:16) (see Guo et al., 1998, Nature Med., 4:957-962; Guo et al., 2001 Brain Res, 903:13-25) following the instructions of the manufacturer (GeneTools) in 0.5 ml of serum-free DMEM/F-12, 1XN2 supplemented with 20 ng/ml FGF-2. For induction of apoptosis, the novel ceramide analog S18 (40-100), N-acetyl sphingosine (C2 ceramide, […], or natural ceramide isolated from EBs (0.5-1.5 μM) was added 48 hours after transfection with the anti-PAR-4 morpholino, and the degree of apoptosis quantified after 15-20 hours using TUNEL assays with paraformaldehyde-fixed cells as described above.

sfEBMs in suspension = experiment: S18 treatment of sfEBMs in suspension, histology and immunocytochemistry; type: cell-based, human
Method: To perform immunostaining on fixed cells or cytospins, the samples were washed in block buffer (3% goat serum, 1% polyvinyl Pyrolidone, 0.3% Triton X-100 in wash buffer) for 30 minutes, and then incubated with the appropriate dilution of the primary antibody, or combination of antibodies for 4-6 hours at room temperature. The primary antibodies were anti-Map2, a mouse monoclonal antibody recognizing the Map-2 a, b and c isoforms (Sigma, Catalog # M4403) at a 1/500 dilution; anti-Nestin, a rabbit polyclonal antibody (Chemicon, Catalog # AB5922) at a 1/200 dilution; anti-Oct-4, a rabbit polyclonal antibody (Santa Cruz, Catalog # sc-9081) at a 1/200 dilution; sheep anti-Tyrosine Hydroxlyase (TH) antibody (Pel-Freez, Catalog # P60101-0) at a 1/500 dilution; anti-phosphoHistoneH3, a rabbit polyclonal antibody (Upstate, Catalog, # 06-570) at a 1/400 dilution; anti-SSEA4, a mouse monoclonal antibody (Developmental Studies Hybridoma Bank, Catalog # MC-813-70) at a ⅕ dilution. The cells were then washed in wash buffer (50 mM Tris-HCL pH 7.5, and 2.5 mM NaCl) 3 times for 5 minutes each wash. The cells were then incubated for a minimum of 2 hours in secondary antibodies diluted 1:1000, followed by washing in wash buffer. The secondary antibodies were appropriate combinations of Alexa-350 (blue), -488 (green) or -568 (red) conjugated goat anti-chicken, anti-rabbit, anti-sheep or anti-mouse antibodies, all available from Molecular Probes. Some samples were stained with 5 ng/ml DAPI to detect cell nuclei, and were then washed from overnight to 2 days in a large volume of wash buffer. The slides were mounted with mounting medium and a cover slip. Slides were visualized using either a NIKON TS100 inverted microscope or a NIKON TE 2000-S inverted microscope with a Q Imaging digital camera
Essentially serum free embryoid bodies (sfEBMs) were generated as described in Example 6, and were exposed to S18 at different stages of their development in order to assess the timing of depletion of high Oct-4 expressing cells, and in order to determine when neural rosettes could be selected. The sfEBMs in suspension were treated with 10 μM S18 in 50% DMEM/F12, 50% MEDII, supplemented with 1×N2, Glutamine (20 mM), penicillin (0.5 U/ml), and streptomycin (0.5 U/ml) for varying amounts of time, and the sfEBMs were then evaluated histologically and by immunocytochemistry.
Essentially serum free embryoid bodies were derived from protease passaged cells and grown in the presence of 50% MEDII conditioned medium. The embryoid bodies were exposed to 10 μM S18 in the same medium from day 6 to 9 after derivation. At day 9 the S18 treated sfFBMs and matched control sfEBMs not exposed to S18 were fixed, embedded in plastic, cut to 3 micron sections and stained with DAPI to enable the precise determination of the proportion of the total healthy nuclei of an sfEBM that were rosette cell nuclei.

[2] = sfEBMs at day 14, 48 hours exposure to 10 μM S18

CCCCCCCC/C=C\CCCCCCCC(=O)NC(CO)CO [S18, N-(2-hydroxy-1-(hydroxymethyl)ethyl)-oleoylamide]
ceramide analog-induced apoptosis in untransfected or mock (RFP)-transfected cells ([1]; 40 μM S18): no or only a low degree | number of apoptotic cells ([1]; 80 μM S18, control morpholino-transfected and untransfected NPs): more than 80% | apoptosis in PAR-4-RFP transfected cells ([1]; myriocin-treated ES cells transfected at NP1 stage, 40 μM S18): apoptosis was observed | viable embryoid bodies derived from monolayer crater cells (sfEBMs in suspension; 10 μM S18, four days): No viable embryoid bodies were observed | regions of high Oct-4 expression (residual pluripotent cells) (sfEBMs in suspension; S18 selected sfEBM (10 μM) seeded at day 21, anti-Oct-4 staining): no regions of high Oct-4 expression could be detected | mitotic activity of neural rosette precursor cells (phosphoHistone H3) (sfEBMs in suspension; day 28 after derivation, 8 days after withdrawal of S18): still mitotically active | presumptive dopaminergic neurons or their precursors (anti-TH staining) (sfEBMs in suspension; exposure to 10 μM S18): not ablated | apoptosis in sfEBMs (sfEBMs in suspension; [2]): extensive apoptosis in the bodies | morphology of rosette regions (sfEBMs in suspension; [2]): morphologically normal | population surviving incubation (DAPI stained sections) (sfEBMs in suspension; sfEBMs from protease passaged cells, 10 μM S18 from day 6 to 9): a very pure population of neural precursor rosette cells had survived
